Species: Rattus norvegicus
Assay: Open TG-GATES - Regimen: Daily Repeat
Type: toxicity, organism-based, Sprague-Dawley
Design: regimen Daily Repeat, gender Male, age 6 weeks
Conditions: in vivo, po, 100 mg/kg, route gavage, dose level High; for APTT / Bas / Eos / Fbg / Hb / Ht / Lym / MCH / MCHC / MCV / Mono / Neu / PT / Plat / RBC / Ret / WBC: tissue Blood; for KIDNEY_L / KIDNEY_R / KIDNEY_TOTAL: tissue Kidney; for LIVER: tissue Liver; for A/G / ALP / ALT / AST / BUN / CRE / Ca / Cl / DBIL / GLC / IP / K / LDH / Na / PL / RALB / TBIL / TC / TG / TP / gamma-GTP: tissue Plasma

Structure (SMILES): CN(C)CCN(Cc1cccs1)c1ccccn1
- TERMINAL_BW (72 h, time 3 day): 205.4 g
- APTT (72 h, time 3 day): 20.1 s
- Bas (72 h, time 3 day): 0%
- Eos (72 h, time 3 day): 1%
- Fbg (72 h, time 3 day): 285.6 mg/dL
- Hb (72 h, time 3 day): 13 g/dL
- Ht (72 h, time 3 day): 38.7%
- Lym (72 h, time 3 day): 75.2%
- MCH (72 h, time 3 day): 20.8 pg
- MCHC (72 h, time 3 day): 33.7%
- MCV (72 h, time 3 day): 61.8 fL
- Mono (72 h, time 3 day): 2.2%
- Neu (72 h, time 3 day): 20.8%
- PT (72 h, time 3 day): 15.9 s
- Plat (72 h, time 3 day): 132.3 x10_4/uL
- RBC (72 h, time 3 day): 626.8 x10_4/ul
- Ret (72 h, time 3 day): 4.7%
- WBC (72 h, time 3 day): 84.8 x10_2/uL
- KIDNEY_L (72 h, time 3 day): 0.9 g
- KIDNEY_R (72 h, time 3 day): 1 g
- KIDNEY_TOTAL (72 h, time 3 day): 1.9 g
- LIVER (72 h, time 3 day): 10.6 g
- A/G (72 h, time 3 day): 1.2
- ALP (72 h, time 3 day): 1934 IU/L
- ALT (72 h, time 3 day): 61.2 IU/L
- AST (72 h, time 3 day): 106.4 IU/L
- BUN (72 h, time 3 day): 16.6 mg/dL
- CRE (72 h, time 3 day): 0.2 mg/dL
- Ca (72 h, time 3 day): 10.9 mg/dL
- Cl (72 h, time 3 day): 107 meq/L
- DBIL (72 h, time 3 day): 0.01 mg/dL
- GLC (72 h, time 3 day): 160.2 mg/dL
- IP (72 h, time 3 day): 7.6 mg/dL
- K (72 h, time 3 day): 4.4 meq/L
- LDH (72 h, time 3 day): 202.2 IU/L
- Na (72 h, time 3 day): 142.2 meq/L
- PL (72 h, time 3 day): 161.2 mg/dL
- RALB (72 h, time 3 day): 2.8 g/dL
- TBIL (72 h, time 3 day): 0.028 mg/dL
- TC (72 h, time 3 day): 91.8 mg/dL
- TG (72 h, time 3 day): 49 mg/dL
- TP (72 h, time 3 day): 5.2 g/dL
- gamma-GTP (72 h, time 3 day): 2 IU/L
- TERMINAL_BW ([…], time 7 day): 222.8 g
- TERMINAL_BW ([…], time 14 day): 237.7 g
- TERMINAL_BW ([…], time 28 day): 237.4 g
- APTT ([…], time 7 day): 18.6 s
- Bas ([…], time 7 day): 0%
- Eos ([…], time 7 day): 0.6%
- Fbg ([…], time 7 day): 247 mg/dL
- Hb ([…], time 7 day): 14.2 g/dL
- Ht ([…], time 7 day): 42.3%
- Lym ([…], time 7 day): 80.4%
- MCH ([…], time 7 day): 20.5 pg
- MCHC ([…], time 7 day): 33.5%
- MCV ([…], time 7 day): 61.2 fL
- Mono ([…], time 7 day): 2.4%
- Neu ([…], time 7 day): 15.4%
- PT ([…], time 7 day): 15.9 s
- Plat ([…], time 7 day): 123.2 x10_4/uL
- RBC ([…], time 7 day): 691.6 x10_4/ul
- Ret ([…], time 7 day): 3.7%
- WBC ([…], time 7 day): 124.5 x10_2/uL
- APTT ([…], time 14 day): 21.1 s
- Bas ([…], time 14 day): 0%
- Eos ([…], time 14 day): 0.2%
- Fbg ([…], time 14 day): 177.8 mg/dL
- Hb ([…], time 14 day): 15.1 g/dL
- Ht ([…], time 14 day): 44.1%
- Lym ([…], time 14 day): 74%
- MCH ([…], time 14 day): 19.5 pg
- MCHC ([…], time 14 day): 34.3%
- MCV ([…], time 14 day): 56.9 fL
- Mono ([…], time 14 day): 3.2%
- Neu ([…], time 14 day): 21.4%
- PT ([…], time 14 day): 18.3 s
- Plat ([…], time 14 day): 117.4 x10_4/uL
- RBC ([…], time 14 day): 775 x10_4/ul
- Ret ([…], time 14 day): 2.4%
- WBC ([…], time 14 day): 140.8 x10_2/uL
- APTT ([…], time 28 day): 24.5 s
- Bas ([…], time 28 day): 0%
- Eos ([…], time 28 day): 0.5%
- Fbg ([…], time 28 day): 140.8 mg/dL
- Hb ([…], time 28 day): 16.7 g/dL
- Ht ([…], time 28 day): 48.9%
- Lym ([…], time 28 day): 53.8%
- MCH ([…], time 28 day): 18.1 pg
- MCHC ([…], time 28 day): 34.1%
- MCV ([…], time 28 day): 53 fL
- Mono ([…], time 28 day): 5%
- Neu ([…], time 28 day): 39.8%
- PT ([…], time 28 day): 20.1 s
- Plat ([…], time 28 day): 79.2 x10_4/uL
- RBC ([…], time 28 day): 924.8 x10_4/ul
- Ret ([…], time 28 day): 2.1%
- WBC ([…], time 28 day): 178.3 x10_2/uL
- KIDNEY_L ([…], time 7 day): 1 g
- KIDNEY_R ([…], time 7 day): 1 g
- KIDNEY_TOTAL ([…], time 7 day): 2 g
- KIDNEY_L ([…], time 14 day): 1.1 g
- KIDNEY_R ([…], time 14 day): 1.1 g
- KIDNEY_TOTAL ([…], time 14 day): 2.1 g
- KIDNEY_L ([…], time 28 day): 1.1 g
- KIDNEY_R ([…], time 28 day): 1.1 g
- KIDNEY_TOTAL ([…], time 28 day): 2.2 g
- LIVER ([…], time 7 day): 11.6 g
- LIVER ([…], time 14 day): 10.6 g
- LIVER ([…], time 28 day): 9.7 g
- A/G ([…], time 7 day): 1.1
- ALP ([…], time 7 day): 2330.2 IU/L
- ALT ([…], time 7 day): 145.2 IU/L
- AST ([…], time 7 day): 324.2 IU/L
- BUN ([…], time 7 day): 19 mg/dL
- CRE ([…], time 7 day): 0.2 mg/dL
- Ca ([…], time 7 day): 10.4 mg/dL
- Cl ([…], time 7 day): 107.6 meq/L
- DBIL ([…], time 7 day): 0.094 mg/dL
- GLC ([…], time 7 day): 152.2 mg/dL
- IP ([…], time 7 day): 8.7 mg/dL
- K ([…], time 7 day): 4.6 meq/L
- LDH ([…], time 7 day): 230.6 IU/L
- Na ([…], time 7 day): 144 meq/L
- PL ([…], time 7 day): 179 mg/dL
- RALB ([…], time 7 day): 2.7 g/dL
- TBIL ([…], time 7 day): 0.1 mg/dL
- TC ([…], time 7 day): 100 mg/dL
- TG ([…], time 7 day): 30.2 mg/dL
- TP ([…], time 7 day): 5.2 g/dL
- gamma-GTP ([…], time 7 day): 7 IU/L
- A/G ([…], time 14 day): 1.1
- ALP ([…], time 14 day): 2530.2 IU/L
- ALT ([…], time 14 day): 69 IU/L
- AST ([…], time 14 day): 237.2 IU/L
- BUN ([…], time 14 day): 16.6 mg/dL
- CRE ([…], time 14 day): 0.2 mg/dL
- Ca ([…], time 14 day): 9.7 mg/dL
- Cl ([…], time 14 day): 106.8 meq/L
- DBIL ([…], time 14 day): 0.3 mg/dL
- GLC ([…], time 14 day): 135.6 mg/dL
- IP ([…], time 14 day): 8.2 mg/dL
- K ([…], time 14 day): 4.1 meq/L
- LDH ([…], time 14 day): 250.8 IU/L
- Na ([…], time 14 day): 141.8 meq/L
- PL ([…], time 14 day): 126.4 mg/dL
- RALB ([…], time 14 day): 2.5 g/dL
- TBIL ([…], time 14 day): 0.3 mg/dL
- TC ([…], time 14 day): 57.4 mg/dL
- TG ([…], time 14 day): 22 mg/dL
- TP ([…], time 14 day): 4.8 g/dL
- gamma-GTP ([…], time 14 day): 6.6 IU/L
- A/G ([…], time 28 day): 1
- ALP ([…], time 28 day): 1953.8 IU/L
- ALT ([…], time 28 day): 94 IU/L
- AST ([…], time 28 day): 418 IU/L
- BUN ([…], time 28 day): 13.5 mg/dL
- CRE ([…], time 28 day): 0.2 mg/dL
- Ca ([…], time 28 day): 9.1 mg/dL
- Cl ([…], time 28 day): 107.8 meq/L
- DBIL ([…], time 28 day): 1 mg/dL
- GLC ([…], time 28 day): 116.5 mg/dL
- IP ([…], time 28 day): 7.6 mg/dL
- K ([…], time 28 day): 3.9 meq/L
- LDH ([…], time 28 day): 377.5 IU/L
- Na ([…], time 28 day): 140.5 meq/L
- PL ([…], time 28 day): 96.5 mg/dL
- RALB ([…], time 28 day): 2 g/dL
- TBIL ([…], time 28 day): 1 mg/dL
- TC ([…], time 28 day): 38 mg/dL
- TG ([…], time 28 day): 29.8 mg/dL
- TP ([…], time 28 day): 4 g/dL
- gamma-GTP ([…], time 28 day): 15.2 IU/L

— ChEMBL document CHEMBL3885861, “Open TG-GATES”
